Here are results for ten molecules from patent US8415300B2, “Sustained release of microcrystalline peptide suspensions” (Medical Research Council Technology, priority 2001, dated 2013).

Data set [1] is described as follows: Pharmacokinetic analysis: sustained release of the peptide after injection of the suspension. The class given is in vivo, rats. Here is the method: FIG. 2 is a graph which illustrates the sustained release of the peptide Teverelix for several weeks in rats injected with the suspension of Teverelix trifluoroacetate according to the invention.
(§1) 200 μL of 5% mannitol were added to approximately 15 mg of the LHRH antagonist Teverelix trifluoroacetate. […] The suspension is made of microcrystals of about 10 μm length. Microcrystals may clump together to form urchin like structures. The suspension was injected in rats (1 mg) sub-cutaneously and provided the pharmacodynamic effect of testosterone suppression for more than 45 days (FIG. 1).

Data set [2] can be described thus: Physical form (gel or flowing milky microcrystalline suspension) of the peptide salt mixed with aqueous medium or counter-ion acid. The class given is physicochemical. On the procedure:
Such behavior is not elicited by other salts such as the acetate, which result in the expected, but unwanted, formation of gels with poor bioavailability in vivo.
as §1
200 μL of water were added to approximately 15 mg of the LHRH antagonist Teverelix trifluoroacetate.
200 μL of water were added to approximately 15 mg of the LHRH antagonist Teverelix acetate.
In another study, 100 μL of TFA of various concentrations were added to 7.5 mg of the LHRH antagonist Teverelix acetate, with the TFA/Teverelix molar ratio ranging from 1 to 3.
200 μL of 150 mM TFA were added to amounts of the LHRH antagonist Teverelix acetate ranging from 5 to 30 mg (concentration ranging from 25 to 150 mg/mL).
The suspension was freeze-dried overnight.
(§2) The suspension was freeze-dried overnight. […] These suspensions were stable for at least 3 days at room temperature.
The suspension is made of microcrystals of about […] length. Microcrystals may assemble together to form urchin like structures. The suspension was freeze-dried overnight. […]

The nature of data set [3]: Stability of reconstituted suspensions at room temperature. The class given is physicochemical. Conditions: reconstituted with water and 0.2 M acetate buffer pH 4.0.
Source text: as §2

The mark [4] stands for this setting: 100 μL of 150 mM trifluoroacetic acid solution added to 7.5 mg.

Structures can show the parent of a compound that is named as a salt. Starred links: 1 amine or outer side, 2 acyl side, 3 side chain; linkers in the order of their positions; H or OH if unused. Positions of bridges follow the written chain, without caps; N, C: chain ends. Non-standard residues stand in square brackets, D forms with d. Residues, ends and D or L forms follow the SMILES beside them. Groups on a side chain read outwards from the residue. No end group written: not given here. *: point of attachment. dTrp(2-Me) = Cc1[nH]c2ccccc2c1C[C@@H](N)C(=O)O; Trp(2-Me) = Cc1[nH]c2ccccc2c1C[C@H](N)C(=O)O; dPhe(4-Cl) = N[C@H](Cc1ccc(Cl)cc1)C(=O)O; d2Nal = N[C@H](Cc1ccc2ccccc2c1)C(=O)O; d(hCit) = NC(=O)NCCCC[C@@H](N)C(=O)O; Lys(iPr) = CC(C)NCCCC[C@H](N)C(=O)O; Ethylenediamine = C(CN[*:2])N[*:1]; Hyp = O=C(O)[C@@H]1C[C@@H](O)CN1; dCit = NC(=O)NCCC[C@@H](N)C(=O)O; d3Pal = N[C@H](Cc1cccnc1)C(=O)O; Phg = N[C@H](C(=O)O)c1ccccc1; CO = O=C([*:1])[*:2]; Bn = c1ccc(C*)cc1

Regarding `CC(=O)N[C@H](Cc1ccc2ccccc2c1)C(=O)N[C@H](Cc1ccc(Cl)cc1)C(=O)N[C@H](Cc1cccnc1)C(=O)N[C@@H](CO)C(=O)N[C@@H](Cc1ccc(O)cc1)C(=O)N[C@H](CCCCNC(N)=O)C(=O)N[C@@H](CC(C)C)C(=O)N[C@@H](CCCCNC(C)C)C(=O)N1CCC[C@H]1C(=O)N[C@H](C)C(N)=O` [Teverelix trifluoroacetate, Ac-D-Nal-D-pClPhe-D-Pal-Ser-Tyr-D-Hci-Leu-Lys(iPr)-Pro-D-Ala-NH2] (Ac-[d2Nal][dPhe(4-Cl)][d3Pal]SY[d(hCit)]L[Lys(iPr)]P[dA]-NH2), the “sustained release of the peptide, duration” value in data set [1] (rats, 1 mg sub-cutaneously, suspension in 5% mannitol) is given as “several weeks”.
Regarding `NCCCC[C@@H]1NC(=O)[C@@H](Cc2c[nH]c3ccccc23)NC(=O)[C@H](c2ccccc2)NC(=O)[C@@H]2C[C@@H](OC(=O)NCCN)CN2C(=O)[C@H](Cc2ccccc2)NC(=O)[C@H](Cc2ccc(OCc3ccccc3)cc2)NC1=O` [SOM 230, ETD-carboxy-c[Hyp-Phg-D-Trp-Lys-Tyr(Bzl)-Phe], reference compound] (cyclo([Hyp]([CO-Ethylenediamine])[Phg][dW]KY(Bn)F)), the “physical form after mixing” value in data set [2] (100 μL of 5% mannitol-water solution added to approximately 5 mg) was “milky free flowing suspension”.
In the case of [dF]CY[dW]KVCW-NH2 (disulfide 2-7), the “physical form after mixing” value in data set [2] (setting [4]) is on record as “Free flowing suspensions”.
On to “Ac-D-Nal-D-pClPhe-D-Pal-Ser-Tyr-D-Hci-Leu-Lys(iPr)-Pro-D-Ala-NH2 [Teverelix]”, for which, in data set [1] (highly concentrated aqueous suspension of TFA or sulfate salt injected parenterally, general statement (FIGS. 1 and 2)), the “release of the active principle, duration” value is on record as “several weeks”. The “physical form of highly concentrated aqueous suspension” value in data set [2] (as trifluoroacetate (TFA) or sulfate salt, general statement) is on record as “microcrystalline milky suspension”.
In the case of “[dTrp(2-Me)]CF[dW]KTC[Trp(2-Me)]-NH2 (disulfide 2-7)”, the “physical form after mixing” value in data set [2] (setting [4]) was “Free flowing suspensions”.
For the molecule “Ac-D-Nal-D-pClPhe-D-Pal-Ser-Tyr-D-Hci-Leu-Lys(iPr)-Pro-D-Ala-NH2 [Teverelix hydrochloride]”, the “physical form after mixing” value in data set [2] (100 μL of 150 mM benzenesulfonic acid added to 7.5 mg) is “free flowing suspension”.
With “[dF]CY[dW]KVC[Trp(2-Me)]-NH2 (disulfide 2-7)”, the “physical form after mixing” value in data set [2] (setting [4]) is recorded as “Free flowing suspensions”.
On to “D-Nal-c[Cys-Tyr-D-Trp-Lys-Val-Cys]-Trp(2Me)-NH2”, for which the “physical form after mixing” value in data set [2] (setting [4]) was “Free flowing suspensions”.
For “Ac-D-Nal-D-pClPhe-D-Pal-Ser-Tyr-D-Hci-Leu-Lys(iPr)-Pro-D-Ala-NH2 [Teverelix acetate]”, the “physical form after mixing” value in data set [2] (150 mM TFA (3 mols/mol): 200 μL to approximately 15 mg (Example 6) or 1 mL to approximately 75 mg (Example 7)) is given as “flowing milky suspension”; in data set [2] (100 μL of 150 mM trifluoromethane sulfonic acid solution added to 7.5 mg) it was “free flowing milky suspension”; in data set [2] (100 μL of 250 mM H2SO4 added to 7.5 mg (5 mols/mol), after several hours), “flowing milky suspension”; in data set [2] (200 μL of 75 mM TFA with approximately 15 mg (1.5 mol/mol)), “transparent gel”; in data set [2] (200 μL of 100 mM TFA added to approximately 15 mg (2 mols/mol)), “flowing milky suspension”; in data set [2] (approximately 15 mg in 200 μL of water, vortex one minute) it was “transparent gel”. Further, the “physical form after freeze-drying and reconstitution” value is recorded as “flowing milky suspension” in data set [2] (150 mM TFA suspension freeze-dried overnight, 1 mL of water and 0.2 M acetate buffer pH 4.0 added); “flowing milky suspension” in data set [2] (150 mM TFA suspension freeze-dried overnight, 200 μL of water or 5% mannitol added); “flowing milky suspension” in data set [2] (H2SO4 suspension freeze-dried overnight, 100 μl of water or 5% mannitol added). The “physical form after addition of TFA to the gel” value in data set [2] (20 μL of TFA (3 mols/mol) added to gel of approximately 15 mg in 200 μL water) is listed as “fluid, flowing milky pearly suspension”. In addition, the “TFA/Teverelix molar ratio at which a flowing milky suspension was obtained” value in data set [2] (100 μL of TFA of various concentrations added to 7.5 mg, molar ratio ranging from 1 to 3, gels at other ratios) was found to be 1.6. Moreover, the “concentration at which a flowing milky suspension was obtained” value in data set [2] (200 μL of 150 mM TFA added to 5 to 30 mg (25 to 150 mg/mL)) is recorded as “up to 100 mg/mL”. The microcrystal length entry in data set [2] (suspension from 100 μL of 250 mM H2SO4 and 7.5 mg) is “about 100 μm”. The “stability of the reconstituted suspensions” value in data set [3] was “at least 3 days”.
On to `CC(=O)N[C@H](Cc1ccc2ccccc2c1)C(=O)N[C@H](Cc1ccc(Cl)cc1)C(=O)N[C@H](Cc1cccnc1)C(=O)N[C@@H](CO)C(=O)N[C@@H](Cc1ccc(O)cc1)C(=O)N[C@H](CCCNC(N)=O)C(=O)N[C@@H](CC(C)C)C(=O)N[C@@H](CCCNC(=N)N)C(=O)N1CCC[C@H]1C(=O)N[C@H](C)C(N)=O` [Cetrorelix acetate, reference compound] (Ac-[d2Nal][dPhe(4-Cl)][d3Pal]SY[dCit]LRP[dA]-NH2), for which the “physical form after mixing” value in data set [2] (100 μL of 200 mM trifluoroacetic acid solution added to 2.5 mg) is “milky free flowing suspension”.
